Assay [1] in a line: Hapten-induced (oxazolone) colitis. In kind it is in vivo, mouse. As to conditions: MTPflox/floxMx1Cre mice without pIpC. As for the experimental part: The hapten-induced colitis model using oxazolone (4-ethoxymethylene-2-phenyl-2-oxazolin-5-one) as the hapten was established in WT B6 or MTP^flox/floxMx1Cre mice as previously described. Briefly, 6 week-old female mice were injected intraperitoneally with vehicle or 500 μg pIpC at days 1, 3, 5 and 7 followed by application of 200 μl of 3% oxazolone (Sigma-Aldrich, St. Louis, Mo.) in 100% ethanol on the abdomen at day 8. On day 14, mice were anesthetized with tribromo-ethanol (Sigma-Aldrich) and 150 μl of 1% oxazolone in 50% ethanol administered per rectum via a 3.5F catheter. Wasting was monitored until day 18 at which time the mice were sacrificed and tissue samples collected for histological examination. Colonic tissue specimens for histological assessment of colitis were fixed in 10% buffered formalin phosphate and embedded in paraffin, cut into 5 micron thick sections and stained with hematoxylin-eosin. The stained paraffin sections were evaluated by for the following parameters of colitis on a scale of 0 to 3 according to known methods: hypervascularity, mononuclear cell infiltration, crypt hyperplasia, epithelial injury or ulceration, polymorphonuclear cell infiltration or crypt abscesses.
The effect of MTPp gene deletion on the clinicopathologic outcome of oxazolone-induced colitis was examined.

Assay [2] is classed as in vivo, mouse. As to conditions: wild-type C57BL/6J and MTPflox/floxMx1Cre mice, without pIpC-induced deletion. As for the experimental part: αGalCer was kindly provided by Dr. Michael Brenner (Brigham and Women's Hospital, Boston, Mass.). […] Mice were sacrificed and sera from peripheral blood subjected to […] (ALT) or aminoaspartate transferase (AST) assays. The kinetic quantitative determination of ALT in serum was performed by ALT/SGPT LIQUI-UV (Stanbio Laboratory, Boeme, Tex.) according to the manufacture's instructions. Fresh liver samples were collected for macroscopic and microscopic inspection. For microscopic examination, liver tissues were immediately fixed in 10% buffered formalin phosphate and embedded in paraffin, cut into sections and stained with hematoxylin-eosin. The clinical response to a hepatocyte mediated, CD1d-dependent response in vivo was evaluated (Osman, Y. et al. Eur. J. Immunol. 30, 1919-1928 (2000)). […] The latter was evident from the absence of elevations of transaminases (FIG. 2D, panels c and d), macroscopic liver necrosis (FIG. 2E, panel d) or microscopic evidence of hepatitis (FIG. 2F, panel d) in the MTP^flox/floxMx1Cre mice that received αGalCer with prior pIpC treatment.

For assay [3], the target named is recombinant murine CD1d, beta2m associated, purified by baculovirus expression system (mouse) (UniProt P11609). Kind of assay: cell-based or functional assay.
Chain of recombinant murine CD1d, beta2m associated, purified by baculovirus expression system (mouse) (P11609 22-305): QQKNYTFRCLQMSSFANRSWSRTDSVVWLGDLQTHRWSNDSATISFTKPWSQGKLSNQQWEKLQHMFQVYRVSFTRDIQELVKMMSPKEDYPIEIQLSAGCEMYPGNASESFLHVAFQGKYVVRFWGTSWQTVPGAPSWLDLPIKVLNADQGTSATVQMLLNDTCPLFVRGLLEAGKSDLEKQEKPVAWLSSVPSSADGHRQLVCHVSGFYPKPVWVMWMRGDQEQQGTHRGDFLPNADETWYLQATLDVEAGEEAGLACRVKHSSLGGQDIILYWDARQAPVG

Consider `CCOC=C1N=C(c2ccccc2)OC1=O` [oxazolone, 4-ethoxymethylene-2-phenyl-2-oxazolin-5-one], for which the colitis induction result in assay [1] was “severe colitis”.

For `CCCCCCCCCCCCCCCCCCCCCCCCCC(=O)N[C@@H](CO[C@H]1O[C@H](CO)[C@H](O)[C@H](O)[C@H]1O)[C@H](O)[C@H](O)CCCCCCCCCCCCCC` [αGalCer, α-galactosylceramide], the hepatitis induction entry in assay [2] is reported as “induced hepatitis”.

Consider “MTP purified from rat liver (from UniProt D4A1W8 22-896; P04785 20-509)”, for which, in assay [3], the MTP-mediated PE transfer to CD1d fell in the range of 0.4 to 1.6 picomoles and the fluorescence of NBD-labeled PE transferred to plate-coated CD1d worked out at 5 fold.

Source of the values: US20050234073A1, “Methods of inhibiting inflammation” (priority 2003, published 2005).
